Measured values reported in patent US8680070B2, “Medical implants containing adenosine receptor agonists and methods for inhibitiing medical implant loosening” (New York University, priority 2007, dated 2014).

Experiments:
TRAF6 protein = test: Western blotting of TRAF6 protein in RAW264.7 cells; format: cell-based, murine; conditions: 1 μg/ml for 4 days, then RANKL 30 ng/ml, β-actin as comparison
Method: Western blotting. Osteoclast precursors were preincubated with or without CGS21680 (1 μg/ml) or ZM241385 (1 μg/ml) for 4 days and then stimulated with RANKL (30 ng/ml) for the indicated period. For isolation of total proteins, cells were washed twice with PBS and lysed in RIPA buffer. Proteins were estimated and boiled with sample buffer for 5 min and were subjected to electrophoresis on 10% SDS-PAGE. Proteins were transferred onto a nitrocellulose membrane. Membranes were blocked for 2 hours in blocking solution (5% nonfat dry milk in TBS containing 0.1% Tween 20) and exposed to primary Abs overnight at 4° C. After washing, the membranes were incubated for 1 hour at room temperature with secondary Ab, and the proteins were detected using ECL reagents according to the manufacturer's instructions. To reprobe the membranes with other Abs, the membranes were stripped with 100 mM 2-ME, 2% SDS, and 62.5 mM Tris-HCl (pH 6.9) for 20 min at 50° C., followed by immunoblotting as described above.

RAW264.7 cells = test: Osteoclastogenesis: TRAP-positive multinucleated cells from RANKL-stimulated RAW264.7 cells; format: cell-based, murine; conditions: RANKL 30 ng/ml, four days of culture, vs untreated cells, listed as Adenosine A2A receptor antagonist
Method: Osteoclast formation was evaluated by quantification of TRAP-positive MNCs as described previously. TRAP is preferentially expressed at high levels in osteoclasts and is considered, especially in the mouse, to be an osteoclast marker. After incubation, cells on wells were washed in PBS, fixed in 4% paraformaldehyde for 10 min, and stained for acid phosphatase in the presence of 0.3 M sodium tartrate (Sigma-Aldrich). The substrate used was napthol AS-BI phosphate (Sigma-Aldrich). Only those cells that were strongly TRAP-positive (dark red) and have more than 3 nuclei were counted by light microscopy. To evaluate the size of the Osteoclast over time, we counted the number of nuclei per OCL in 50 OCLs for each of the three wells(n=150). The mean number of nuclei per OCL (MNN) and SE were calculated for each time-point, and ANOVA analysis was performed to determine statistically significant differences. RAW264.7 is a macrophage cell line having the capacity to form osteoclast-like cells. Because the RAW264.7 cells provide an excellent in vitro model for dissecting the cellular and molecular regulation of osteoclast differentiation and activation, we studied the effect of adenosine A2A receptors on the osteoclasts generated from the RAW264.7 cells. Cell Culture and Osteoclastogenesis. […]

| Compound | TRAF6 levels (TRAF6 protein) | osteoclast formation (number of multinucleated TRAP+ osteoclasts) (RAW264.7 cells) |
| --- | --- | --- |
| CCNC(=O)[C@H]1O[C@@H](n2cnc3c(N)nc(NCCc4ccc(CCC(=O)O)cc4)nc32)[C@H](O)[C@@H]1O [A2A receptor agonist, CGS 21680] | diminish | – |
| Nc1nc(NCCc2ccc(O)cc2)nc2nc(-c3ccco3)nn12 [adenosine A2A receptor antagonist, ZM241385] | – | increased number |
